Test results taken from ChEMBL document CHEMBL4321794, “Discovery and Optimization of 2-Arylquinazolin-4-ones into a Potent and Selective Tankyrase Inhibitor Modulating Wnt Pathway Activity” (J Med Chem, 2019).

Tests used:
[1] = Intrinsic clearance in human liver microsomes assessed per mg protein in presence of NADPH by UPLC analysis; format: ADME, Microsome; details: read-out: CLH
[2] = Intrinsic clearance in mouse liver microsomes assessed per mg protein in presence of NADPH by UPLC analysis; format: ADME, Microsome; details: read-out: CLH
[3] = target: Poly [ADP-ribose] polymerase 1 (Homo sapiens, UniProt P09874); assay: Inhibition of recombinant human full-length Myc/His-tagged Parp-1 expressed in baculovirus infected Sf21 insect cells assessed as reduction in auto-PARsylation using activated DNA as substrate incubated for 150 mins in presence of NAD and bio-NAD as co-substrate by TR-FRET assay
Sequence of Poly [ADP-ribose] polymerase 1 (P09874 whole entry): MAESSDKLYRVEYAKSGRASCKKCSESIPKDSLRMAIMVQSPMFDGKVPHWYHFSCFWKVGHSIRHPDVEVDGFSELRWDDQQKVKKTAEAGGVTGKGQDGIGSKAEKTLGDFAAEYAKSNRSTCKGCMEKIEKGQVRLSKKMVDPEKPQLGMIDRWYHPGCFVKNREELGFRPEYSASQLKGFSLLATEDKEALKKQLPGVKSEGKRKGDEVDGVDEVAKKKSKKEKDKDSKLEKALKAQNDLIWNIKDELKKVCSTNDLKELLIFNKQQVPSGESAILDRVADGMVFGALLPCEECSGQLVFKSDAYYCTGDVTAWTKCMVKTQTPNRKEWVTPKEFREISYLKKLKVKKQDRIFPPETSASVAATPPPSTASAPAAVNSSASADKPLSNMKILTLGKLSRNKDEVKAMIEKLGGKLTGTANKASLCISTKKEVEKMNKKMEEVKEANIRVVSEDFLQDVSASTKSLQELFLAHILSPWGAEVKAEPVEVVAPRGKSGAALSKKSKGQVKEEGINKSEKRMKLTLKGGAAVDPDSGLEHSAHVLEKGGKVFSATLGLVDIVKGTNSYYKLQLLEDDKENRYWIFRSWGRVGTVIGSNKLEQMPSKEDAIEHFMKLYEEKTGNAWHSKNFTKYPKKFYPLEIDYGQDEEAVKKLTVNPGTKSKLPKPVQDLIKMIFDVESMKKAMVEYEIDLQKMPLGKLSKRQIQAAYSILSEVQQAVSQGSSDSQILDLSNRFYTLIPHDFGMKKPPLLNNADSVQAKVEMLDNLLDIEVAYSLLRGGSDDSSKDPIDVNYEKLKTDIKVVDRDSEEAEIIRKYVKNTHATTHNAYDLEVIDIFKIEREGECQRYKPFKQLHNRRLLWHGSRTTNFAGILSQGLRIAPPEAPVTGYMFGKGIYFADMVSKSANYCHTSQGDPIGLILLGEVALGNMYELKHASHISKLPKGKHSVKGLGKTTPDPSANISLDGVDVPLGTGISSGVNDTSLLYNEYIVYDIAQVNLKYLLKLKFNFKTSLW

[4] = target: T1, Poly [ADP-ribose] polymerase tankyrase-1 (Homo sapiens, UniProt O95271); set-up: species or system Sf9
T1 sequence (O95271 whole entry): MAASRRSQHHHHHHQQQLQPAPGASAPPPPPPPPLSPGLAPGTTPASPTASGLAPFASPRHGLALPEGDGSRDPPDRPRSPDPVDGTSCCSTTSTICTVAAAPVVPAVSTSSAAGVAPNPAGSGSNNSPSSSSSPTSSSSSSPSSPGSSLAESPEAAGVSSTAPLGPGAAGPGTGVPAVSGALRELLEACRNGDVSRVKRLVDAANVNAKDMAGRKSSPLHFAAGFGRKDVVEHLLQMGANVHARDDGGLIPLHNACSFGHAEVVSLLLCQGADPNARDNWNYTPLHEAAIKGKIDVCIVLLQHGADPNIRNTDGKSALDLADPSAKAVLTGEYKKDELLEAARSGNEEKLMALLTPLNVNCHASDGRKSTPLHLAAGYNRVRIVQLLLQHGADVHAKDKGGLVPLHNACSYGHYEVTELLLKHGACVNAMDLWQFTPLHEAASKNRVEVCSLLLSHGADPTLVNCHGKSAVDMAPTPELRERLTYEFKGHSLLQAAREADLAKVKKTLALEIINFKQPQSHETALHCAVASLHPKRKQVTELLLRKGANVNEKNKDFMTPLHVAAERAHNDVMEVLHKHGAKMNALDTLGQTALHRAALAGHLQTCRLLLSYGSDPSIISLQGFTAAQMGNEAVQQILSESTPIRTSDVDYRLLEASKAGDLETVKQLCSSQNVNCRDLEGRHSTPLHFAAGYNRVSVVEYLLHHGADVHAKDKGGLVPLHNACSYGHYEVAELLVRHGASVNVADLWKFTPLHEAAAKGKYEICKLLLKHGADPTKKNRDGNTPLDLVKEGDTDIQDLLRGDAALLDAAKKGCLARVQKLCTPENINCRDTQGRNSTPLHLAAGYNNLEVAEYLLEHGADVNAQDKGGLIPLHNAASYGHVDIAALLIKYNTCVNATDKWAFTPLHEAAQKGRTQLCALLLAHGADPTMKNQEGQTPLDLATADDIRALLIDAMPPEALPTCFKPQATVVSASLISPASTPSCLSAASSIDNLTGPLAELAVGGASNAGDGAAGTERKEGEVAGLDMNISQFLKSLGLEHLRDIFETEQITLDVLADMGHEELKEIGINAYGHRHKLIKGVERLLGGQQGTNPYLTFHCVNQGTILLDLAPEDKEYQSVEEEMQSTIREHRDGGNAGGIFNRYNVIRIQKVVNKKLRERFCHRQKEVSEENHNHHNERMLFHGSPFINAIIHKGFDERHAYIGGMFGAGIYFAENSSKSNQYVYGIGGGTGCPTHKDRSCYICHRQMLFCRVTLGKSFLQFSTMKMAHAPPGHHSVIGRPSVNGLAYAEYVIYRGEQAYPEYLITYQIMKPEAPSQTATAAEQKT

[5] = Thermodynamic solubility in phosphate buffer at pH 7.4 at 2 mg incubated under shaking condition for 6 hrs followed by rechecking and readjusting pH to 7.4 and further incubated for 18 hrs by HPLC/UV detection method; format: physicochemical; details: read-out: Therm_solubility
[6] = target: Voltage-gated inwardly rectifying potassium channel KCNH2 (Homo sapiens, UniProt Q12809); assay: Inhibition of human ERG expressed in HEK293 cells at -80 mV holding potential by whole cell patch clamp method; format: cell-based
Sequence of Voltage-gated inwardly rectifying potassium channel KCNH2 (Q12809 whole entry): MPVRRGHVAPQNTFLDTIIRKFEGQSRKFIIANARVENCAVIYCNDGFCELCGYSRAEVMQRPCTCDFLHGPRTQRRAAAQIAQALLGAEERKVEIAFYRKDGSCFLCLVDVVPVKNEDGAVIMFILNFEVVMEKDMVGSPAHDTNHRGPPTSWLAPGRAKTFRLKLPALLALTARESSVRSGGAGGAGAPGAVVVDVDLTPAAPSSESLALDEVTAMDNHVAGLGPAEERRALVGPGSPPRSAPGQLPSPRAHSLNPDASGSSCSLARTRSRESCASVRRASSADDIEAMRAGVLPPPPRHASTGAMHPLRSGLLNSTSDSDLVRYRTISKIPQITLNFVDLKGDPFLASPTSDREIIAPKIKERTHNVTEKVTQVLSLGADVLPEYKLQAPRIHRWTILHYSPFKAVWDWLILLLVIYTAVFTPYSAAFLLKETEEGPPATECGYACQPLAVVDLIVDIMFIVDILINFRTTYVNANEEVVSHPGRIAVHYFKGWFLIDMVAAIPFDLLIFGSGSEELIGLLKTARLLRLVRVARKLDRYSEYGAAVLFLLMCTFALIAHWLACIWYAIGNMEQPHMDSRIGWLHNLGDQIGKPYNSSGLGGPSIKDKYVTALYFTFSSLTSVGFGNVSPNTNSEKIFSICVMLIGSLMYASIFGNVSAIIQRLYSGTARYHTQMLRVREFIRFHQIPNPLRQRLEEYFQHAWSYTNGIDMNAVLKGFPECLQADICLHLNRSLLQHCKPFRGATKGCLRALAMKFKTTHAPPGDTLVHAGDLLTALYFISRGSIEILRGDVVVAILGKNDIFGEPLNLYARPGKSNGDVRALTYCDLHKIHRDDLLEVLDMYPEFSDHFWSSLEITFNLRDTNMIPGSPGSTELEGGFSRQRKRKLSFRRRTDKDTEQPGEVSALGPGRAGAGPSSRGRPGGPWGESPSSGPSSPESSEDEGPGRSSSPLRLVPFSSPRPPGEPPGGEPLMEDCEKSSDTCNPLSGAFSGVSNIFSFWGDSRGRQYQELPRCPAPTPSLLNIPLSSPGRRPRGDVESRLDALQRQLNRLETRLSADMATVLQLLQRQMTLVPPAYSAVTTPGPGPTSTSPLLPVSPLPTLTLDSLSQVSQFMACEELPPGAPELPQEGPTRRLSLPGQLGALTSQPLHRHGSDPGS

For Cc1cc(F)cc2c(=O)[nH]c(-c3ccc(C4CCNCC4)cc3)nc12.Cl, the microsomal CLint [1] was less than 10 µL/min/mg, the microsomal CLint [2] was 77 µL/min/mg and the IC50 [3] was 390 nM. For the same molecule, the IC50 [4] was 1.3 nM, the solubility thermodynamic at 24 h [5] was 44 µg/mL and the Ki [6] was 6.8 µM.
